Molecular target: T1, human-KAT6A (MYST domain 507-778 aa) (Homo sapiens, UniProt Q92794)
T1 construct: human-KAT6A (MYST domain 507-778 aa)
Test: KAT6A biochemical assay (TR-FRET)
Details: for IC50: dose-response, sigmoidal curve fit, groups A, B, C; for inhibition at 1 µM: compound at 1 μM, percent inhibition of internal assay controls
Source text: A TR-FRET based method was used for assaying compounds of the invention for KAT6A enzyme inhibitory activity. TR-FRET is homogeneous proximity assay where Europium-labelled anti-acetyl lysine antibody binds to the acetylated substrate labelled with biotin which in turn binds to streptavidin labelled APC fluorescence acceptor. Europium can transfer energy to APC in the complex and the interaction of two dye-labelled binding partners is detected by the energy transfer between a donor and an acceptor dye, and the subsequent light emission by the acceptor dye. KAT6A transfer an acetyl group from acetyl CoA to lysine amino acids of histones/target proteins. Typically, 5 μL of human-KAT6A (MYST domain 507-778 aa) in assay buffer (100 mM Tris HCl (pH 7.8), 15 mM NaCl, 1 mM EDTA, 0.01% Tween-20, 0.02% BSA, 1 mM DTT) is added to a 384-well plate containing 5 μL of selected test compound in final 1% DMSO, serially diluted in 1:3 in an 8-10-point titration. The selected compound of the present invention and enzyme are incubated for 30 min at room temperature. Next, 5 μL of substrate mix containing histone H4 peptide and acetyl-CoA in assay buffer is added to the plate. The final concentrations of H4 peptide and acetyl-CoA are 200 nM and 600 nM respectively. Following 30 min reaction at room temperature, 5 μL of detection mix containing Europium labelled anti-acetyl antibody and streptavidin-APC is added to the reaction wells. Plate is further incubated for 45 min at room temperature and is read in TR-FRET mode (Ex: 340 nm; Em: 615 nm and 665 nm) on a plate reader.
Selected compounds of the present invention were screened in the above-mentioned assay procedure and IC50 values were determined by fitting the dose-response data to sigmoidal curve fitting equation using Graph pad prism software V8. […]

T1 sequence (Q92794 507-778): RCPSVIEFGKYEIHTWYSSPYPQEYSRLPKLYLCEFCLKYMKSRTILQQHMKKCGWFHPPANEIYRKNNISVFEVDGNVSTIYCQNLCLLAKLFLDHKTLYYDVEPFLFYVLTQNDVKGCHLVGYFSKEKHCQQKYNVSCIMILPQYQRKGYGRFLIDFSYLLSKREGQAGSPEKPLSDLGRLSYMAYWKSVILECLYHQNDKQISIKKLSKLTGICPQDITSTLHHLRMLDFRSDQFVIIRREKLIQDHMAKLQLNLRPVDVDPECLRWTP

| Structure (SMILES) | inhibition at 10 µM (compound at 10 μM (stated in the cell), read-out: Percent Inhibition (at 10 μM)) | IC50 | inhibition at 1 µM |
| --- | --- | --- | --- |
| COc1cc(C(C)(C)C)ccc1S(=O)(=O)Nc1noc2nc(-c3ccccc3)cc(OC)c12 [Compound 34, 4-(tert-butyl)-2-methoxy-N-(4-methoxy-6-phenylisoxazolo[5,4-b]pyridin-3-yl)benzenesulfonamide] | 100% | > 200 nM |  |
| COc1cccc(OC)c1S(=O)(=O)Nc1noc2nc(Cn3cccn3)cc(OC)c12 [Compound 35, N-(6-((1H-pyrazol-1-yl)methyl)-4-methoxyisoxazolo[5,4-b]pyridin-3-yl)-2,6-dimethoxybenzenesulfonamide] |  | > 200 nM |  |
| COc1cccc(OC)c1S(=O)(=O)N(C)c1noc2nc(-c3ccccc3)cc(OC)c12 [Compound 36, 2,6-dimethoxy-N-(4-methoxy-6-phenylisoxazolo[5,4-b]pyridin-3-yl)-N-methylbenzenesulfonamide] |  |  | 0% |
| CNc1cc(OC)c2c(NS(=O)(=O)c3c(OC)cccc3OC)noc2n1 [Compound 37, 2,6-dimethoxy-N-(4-methoxy-6-(methylamino)isoxazolo[5,4-b]pyridin-3-yl)benzenesulfonamide] |  |  | 34% |
| CCNc1cc(OC)c2c(NS(=O)(=O)c3c(OC)cccc3OC)noc2n1 [Compound 38, N-(6-(ethylamino)-4-methoxyisoxazolo[5,4-b]pyridin-3-yl)-2,6-dimethoxybenzenesulfonamide] |  |  | 95% |

From patent US20240254139A1, “FUSED ISOXAZOLYL COMPOUNDS AS KAT6A INHIBITORS” (Aurigene Oncology Limited, priority 2021, published 2024)
